Assay results: US11629192B2, “Methods and pharmaceutical compositions for the treatment of diseases mediated by the NRP-1/OBR complex signaling pathway” (INSERM (Institut National de la Sante et de la Recherche …, priority 2014, dated 2023)
“Also recorded” adds a separate entry of the source.

Assays:
NRP-1/OBR complex [1] = test: NRP-1/OBR complex detection by Duolink Proximity Ligation Assay in MDA-MB-231 cells; assay type: cell-based, human; conditions: for formation and nuclear translocation of the NRP-1/OBR complex: MDA-MB-231 stimulated with Leptin (10 nM), CK2 inhibitor treatment
Source text: FIG. 2A-E. NRP-1/OBR complex is dependent of the activity of Protein-kinase CK2: NRP-1 and OBR are both a substrate of the holoenzyme CK2: In vitro phosphorylation of the recombinant full length NRP-1 (A) and the length OBR (B) indicate that the CK2β subunit is indispensable for the CK2 activity. C. Detection of the NRP-1 and CK2β subunit interaction: By using the PLA technology, the in vitro data showing the implication of CK2β subunit in the phosphorylation of NRP-1 by CK2 are in part confirmed in MDA-MB231 cells by the detection of CK2β interaction with NRP-1 as indicated by the duolink (white dot). […] E. inhibition of the NRP-1/OBR by the simultaneous CK2α and CK2α′ expression silencing using siRNA that confirms the CK2 implication In the NRP-1/OBR complex formation and nuclear localization.
To confirm a direct association of NRP-1 and Leptin in breast cancer cell migration, we investigated the NRP-1 and OBR interaction by using proximity ligation assay technology (Duolink) in MDA-MB-231 and in T47D-NRP-1. Since OBR is a member of the class I cytokine receptor family, we asked the question if the formation of the complex NRP-1/OBR can or not be modulated by Leptin. This question was investigated endogenously in MDA-MB-231 or by transient transfection of T47D either by NRP-1 or by NRP-1/OBR or OBR alone. After 24 h of transfection, cells were serum starved for 16 h then stimulated with Leptin (10 nM). After 3 h, the stimulation was stopped by removing the medium, cells was first washed then fixed and NRP-1/OBR complex formation was analyzed by Duolink in situ Proximity Ligation Assay (PLA) and by confocal microscopy detection. Co-localization was analyzed using JACoP (ImageJ; National Institutes of Health, Bethesda, Md.) software. Co-localization between molecules was indicated by a positive Pearson coefficient (r). First, the expression of NRP-1 in transfected T47D was confirmed by RT-PCR. NRP-1 forms a complex with endogenous OBR as it is shown by the Duolink detection as red dot in cells transfected with pcDNA3-NRP-1. The Duolink signal increased in the T47D co-transfected with NRP-1 and OBR. The Duolink signals in T47D transfected with either the empty vector pcDNA3 or with the OBR expressing vector were similar. The same results are observed in MDA-MB-231. […] By using subcellular protein fractionation kit, NRP-1 and OBR localization in cytoplasmic (C), membrane (M), in the total nuclear extract (N) or in soluble nuclear (SN) and chromatin bound fractions (CB) was analyzed by western blotting either in total lysate or after coimmunoprecipitation. The purity of fraction was assessed by the detection of specific proteins of each fraction such as Hsp90 for the C fraction, SP1 and HDAC2 for the SN and CB fractions and specifically the Calreticulin for endoplasmic reticulum (ER) in order to detect any contamination by the ER membrane fraction in the nuclear fractions. As suspected, OBR was coimmunoprecipitated with NRP-1 in the cytoplasmic (C) and in the nuclear fraction (N) of MDA-MB-231 but not in T47D. As well as Phosphorylated OBR (P-OBR), NRP-1 was detected in cytoplasmic fraction and in nuclear fractions SN and CB of 16 h serum starved MDA-MB-231 and stimulated with 10 nM of Leptin during 3 h at 37° C. The P-OBR and NRP-1 coimmunoprecipitated in the nuclear fractions, increasing with Leptin stimulation as observed by confocal microscopy.
As attempted, NRP-1/OBR complex was detected by confocal microscopy after by Duolink in situ Proximity Ligation Assay (PLA) in MDA-MB-231 stimulated with Leptin (10 nM). This detection was also observed in MDA-MB-231-shGFP but very less in MDA-MB-231-shNRP-1 confirming NRP-1 association with OBR.

P-NRP-1 = test: NRP-1 (P-NRP-1) and OBR phosphorylation in MDA-MB-231, immunostaining / coimmunoprecipitation; assay type: cell-based, human; conditions: for NRP-1 and OBR phosphorylation: inhibition of CK2 by chemical compounds
Source text: Beside the modulation of the NRP-1/OBR complex formation by Leptin and OBR phosphorylation, we postulated a possible phosphorylation of NRP-1 that can regulate the translocation of the complex to the nucleus. Two putative phosphorylation sites of NRP-1 have been reported with no more investigation. The first one at the extracellular B domain as reported by Shintani et al in 2009 with no antibody available and the second one at the Threonine 916 located in the cytoplasmic domain as it was reported by Kyle et al in 2011. Since a specific antibody against P-NRP-1 at the T916 was available, we investigated by coimmunoprecipitation the detection of P-NRP-1 in MDA-MB-231 after serum starvation and stimulation by Leptin (10 nM). […] To confirm this phosphorylation state, we investigated the possible implication of a Serine/threonine Kinase CK2 using one of its first chemical inhibitor (DRB). In serum starved condition, P-NRP-1 was detected as polarized spot in the cytoplasm and the nucleus of MDA-MB-231. […] The inhibition was specific since, in stimulated condition combined with DMSO at the same dilution of DRB, we were able to observe a diffuse nuclear P-NRP-1 staining.

NRP-1/OBR complex [2] = test: NRP-1/OBR complex by PLA in skin fibroblast of healthy donor and anorexic patient; assay type: cell-based, human; conditions: for NRP-1/OBR complex formation: skin fibroblasts of healthy donor and anorexic patient, treated during 4 hours
Description: FIG. 3A-B. NRP1/OBR complex formation inhibited by two alosteric inhibitors of Protein-kinase CK2 in skin fibroblast of healthy donor (A) and anorexic patient (B). The NRP-1/OBR complex (Red dot) is detected by de Proximity Ligation assay technology (PLA or Ouolink). Cells were grown in DMEM plus 20% of fetal bovine serum+Sodium pyruvate+LGiutamate and penicillin and streptomycin. Cells were treated or not with D3.1 or M4 CK2 inhibitor during 4 hours. Cells were washed with PBS1X and fixed with iced acetone and rehydrated with PBS before blockage and staining with a Goat ant-Human leptin and Rabbit anti-Neuropilin-1 and Mouse anti-Leptin receptor OBR. Leptin was detected using a donkey and Goat Alexa 488 (Green) and NRP-1 and OBR with anti-Rabbit-PLA minus and antimouse-PLA plus as described in the link indicated above. The NRP-1/OBR complex is inhibited by D3.1 and M4 treatment.

[3] = test system: OBR and STAT3 phosphorylation; test: OBR and STAT3 phosphorylation in cytoplasmic and nuclear fractions; assay type: cell-based
Source text: Since both NRP-1/OBR complex formation and NRP-1 phosphorylation were abolished by CK2 inhibition, we supposed that OBR signaling pathway could be also affected by CK2 inhibition.

MDA-MB-231 cells = test: MDA-MB-231 cell migration / transmigration through insert; assay type: cell-based, human; conditions: 10 μg/ml of Bevacizumab
Source text: (§1) FIG. 5. NRP-1, OBR and leptin interactions confirmation using a Bio-Layer Interferometry (BLI) technology (fortebio.com/bli-technology.html): A-Leptin (OB) interaction to OBR is used as a positive control. Human neuropilin-1 (hNRP-1) interact with human OBR with a high affinity and specifically with human leptin (hOB) but not with murine leptin (mOB). VEGF165 binding to hNRP-1 is used as a positive control. B-Leptin and Avastin association increases MDA-MB231 cells transmigration through […] pore Insert. Avastin treatment may prevent a negative feedback control by VEGF of the pro-angiogenic signaling pathway of Leptin. VEGF binds to OBR which confirms our hypothesis that should be more investigated.
First MBA-MB-231 and T47D breast cancer cells line were selected for their high and undetectable NRP-1 expression respectively and the expression of Leptin receptor (OBR). In order to investigate NRP-1 and Leptin association in breast cancer cell line migration, we proceeded to NRP-1 expression silencing in MDA-MB-231 using either siRNA or shRNA approaches or NRP-1 overexpression in T47D. […] In contrast Leptin induced MDA-MB-231 migration that was decreased in siNRP-1 conditions. The in vitro data were confirmed in vivo by MDA-MB-231 and T47D xenografts in Nude mice. Modulation of NRP-1 expression either by shRNA silencing in MDA-MB-231 or by overexpression in T47D induced an increase of proliferation and a decrease of lymph node infiltration by MDA-MB-231-shNRP-1 and a decrease of proliferation and an increase of lymph node infiltration by T47D-NRP-1-RFP in mice treated with Leptin.
Leptin induced in vitro MDA-MB-231 migration that was decreased by NRP-1 repression using siRNA. Lel Xu et al have reported a direct evidence of NRP-1 up-regulation in tumors treated by anti-VEGF (Bevacizumab). […] This observation can be a first explanation of breast cancer therapy failure (increase of Progression survival while decreasing overall survival) by Bevacizumad and that was revoked by the FDA (Food and Drugs Administration, US).

[4] = target: Human neuropilin-1 (hNRP-1) (Homo sapiens, UniProt O14786); test: Bio-Layer Interferometry (BLI) interaction with hNRP-1; assay type: binding
Source text: as §1

O=C(O)c1ccc2c(c1)nc(Nc1cccc(Cl)c1)c1ccncc12 [CX4945]
NRP-1/OBR complex detection by PLA and its nuclear localization (NRP-1/OBR complex [1]; MDA-MB231, CX4945 (504) during 4 h, leptin stimulation (10 nM)): decrease in NRP-1/OBR complex detection by PLA (red dot) and its nuclear localization | formation and nuclear translocation of the NRP-1/OBR complex (NRP-1/OBR complex [1]): prevented; also recorded: the same results obtained with TBB and DRB inhibitors | NRP-1 and OBR phosphorylation (P-NRP-1): prevented

O=C(O)c1cccc(Nc2nc(-c3cccc([N+](=O)[O-])c3)cs2)c1 [D3.1]
NRP-1/OBR complex formation (NRP-1/OBR complex [2]): inhibited | efficiency of NRP-1/OBR complex inhibition, D3.1 compared with M4 (NRP-1/OBR complex [2]; skin fibroblasts, 4 hours): seems more efficient

OC[C@H]1O[C@@H](n2cnc3cc(Cl)c(Cl)cc32)[C@H](O)[C@@H]1O [DRB, 5,6-dichloro-1-P-D-ribofuranosylbenzimidazole]
formation and nuclear translocation of the NRP-1/OBR complex (NRP-1/OBR complex [1]): prevented | formation and nuclear translocation of the NRP-1/OBR complex (NRP-1/OBR complex [1]; listed as DBB): decrease of NRP-1/OBR complex formation | P-NRP-1 staining (diffuse nuclear staining and polarized spot) (P-NRP-1; Leptin-stimulated (10 nM) MDA-MB-231, DRB treatment (5004)): inhibition of the diffuse nuclear P-NRP-1 staining but also to the decrease of P-NRP-1 polarized spot | NRP-1 and OBR phosphorylation (P-NRP-1): prevented

O=[N+]([O-])c1ccc2c(/N=N/c3c(O)ccc4ccccc34)c(O)cc(S(=O)(=O)O)c2c1 [M4, reference compound]
NRP-1/OBR complex formation (NRP-1/OBR complex [2]): inhibited

Brc1c(Br)c(Br)c2[nH]nnc2c1Br [TBB, 4,5,6,7-tetrabromobenzotriazole]
formation and nuclear translocation of the NRP-1/OBR complex (NRP-1/OBR complex [1]): prevented; also recorded: decrease of NRP-1/OBR complex formation | NRP-1 and OBR phosphorylation (P-NRP-1): prevented | Leptin induced OBR and STAT3 phosphorylation increase, effect of inhibitor [3]: inhibited by TBB treatment in a dose dependent manner

CCC(=C/[C@H](C)C/C=C/C(C)=C/[C@@H](C)C(=O)[C@@H](C)[C@H](O)[C@@H](C)C/C(C)=C/C(=O)O)/C=C/[C@@H]1OC(=O)C=C[C@@H]1C [leptomycin B]
NRP-1/OBR complex detection by Duolink in the nucleus (NRP-1/OBR complex [1]; MDA-MB-231 co-treated with Leptin and leptomycin B vs Leptin alone): increased

Bevacizumab: anti-VEGF antibody (rhuMab VEGF, Avastin) [reference compound]
MDA-MB-231 migration (MDA-MB-231 cells): induced

B1: mOB: murine leptin (protein, UniProt P41160 22-167, looked up)
Leptin: VPIQKVQDDTKTLIKTIVTRINDISHTQSVSAKQRVTGLDFIPGLHPILSLSKMDQTLAVYQQVLTSLPSQNVLQIANDLENLRDLLHLLAFSKSCSLPQTSGLQKPESLDGVLEASLYSTEVVALSRLQGSLQDILQQLDVSPEC
interaction with hNRP-1 [4]: not
